Experiments:
[1] = molecular target: T1, Uncharacterized serine/threonine-protein kinase SBK3 (Homo sapiens) (UniProt P0C264); assay: Selectivity interaction (KinomeScan (DiscoverX)) EUB0000229b SBK3; settings: at 10 µM
T1 sequence (whole entry): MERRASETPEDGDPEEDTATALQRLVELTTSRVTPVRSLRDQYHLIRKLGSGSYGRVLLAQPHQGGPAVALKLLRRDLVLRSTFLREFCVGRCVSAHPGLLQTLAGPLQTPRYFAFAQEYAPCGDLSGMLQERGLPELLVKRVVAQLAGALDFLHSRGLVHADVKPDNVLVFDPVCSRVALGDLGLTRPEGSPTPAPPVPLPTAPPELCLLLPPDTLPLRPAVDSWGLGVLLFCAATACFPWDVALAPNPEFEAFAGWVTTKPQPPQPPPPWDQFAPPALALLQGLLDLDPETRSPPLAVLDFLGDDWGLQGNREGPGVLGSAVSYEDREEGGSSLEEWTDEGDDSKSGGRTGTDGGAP

[2] = molecular target: T2, Rhodopsin kinase GRK1 (Homo sapiens) (UniProt Q15835); assay: Selectivity interaction (KinomeScan (DiscoverX)) EUB0000595a GRK1; settings: at 10 µM
T2 sequence (whole entry): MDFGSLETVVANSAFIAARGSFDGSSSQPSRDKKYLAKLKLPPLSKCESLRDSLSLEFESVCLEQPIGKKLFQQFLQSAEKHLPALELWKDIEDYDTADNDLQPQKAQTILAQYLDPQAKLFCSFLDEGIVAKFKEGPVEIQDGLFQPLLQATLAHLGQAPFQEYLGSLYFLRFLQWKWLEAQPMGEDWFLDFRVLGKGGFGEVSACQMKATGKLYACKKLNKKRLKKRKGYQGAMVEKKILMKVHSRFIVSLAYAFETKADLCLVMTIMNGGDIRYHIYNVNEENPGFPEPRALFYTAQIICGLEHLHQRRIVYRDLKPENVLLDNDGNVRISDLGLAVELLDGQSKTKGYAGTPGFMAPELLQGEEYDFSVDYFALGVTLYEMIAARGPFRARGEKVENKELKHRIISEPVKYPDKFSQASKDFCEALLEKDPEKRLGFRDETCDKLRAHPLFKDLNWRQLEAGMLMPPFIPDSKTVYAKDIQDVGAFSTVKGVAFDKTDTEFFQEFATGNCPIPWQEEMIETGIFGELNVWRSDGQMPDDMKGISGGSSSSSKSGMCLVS

[3] = molecular target: Serine/threonine-protein kinase SIK1 (Homo sapiens) (UniProt P57059); assay: Selectivity interaction (KinomeScan (DiscoverX)) EUB0000045b SIK1
[4] = molecular target: Mitogen-activated protein kinase kinase kinase 14 (Homo sapiens) (UniProt Q99558); assay: Selectivity interaction (KinomeScan (DiscoverX)) EUB0001079a MAP3K14; settings: at 1 µM
[5] = molecular target: MAP kinase-activated protein kinase 3 (Homo sapiens) (UniProt Q16644); assay: Selectivity interaction (Kinase panel (Z-LYTE Assay)) EUB0001632a MAPKAPK3; settings: at 10 µM
[6] = molecular target: Mitogen-activated protein kinase kinase kinase 9 (Homo sapiens) (UniProt P80192); assay: Selectivity interaction (KinomeScan (DiscoverX)) EUB0000666a MAP3K9; settings: at 10 µM
[7] = molecular target: Myosin light chain kinase, smooth muscle (Homo sapiens, UniProt Q15746); assay: Selectivity interaction (KinomeScan (DiscoverX)) EUB0001049a MYLK; settings: at 1 µM
[8] = molecular target: Beta-1 adrenergic receptor (Homo sapiens, UniProt P08588); assay: Selectivity interaction (Beta 1 adrenergic receptor assay, human recombinant ) EUB0000877a ADRB1
[9] = molecular target: Leucine-rich repeat serine/threonine-protein kinase 2 (Homo sapiens, UniProt Q5S007); assay: Selectivity interaction (ActivX KiNativ screen (kinase selectivity in THP-1 cell lysates)) EUB0000639a LRRK2; type: subcellular; settings: lysate
[10] = molecular target: Serine/threonine-protein kinase 10 (Homo sapiens) (UniProt O94804); assay: Selectivity interaction (ActivX KiNativ screen (kinase selectivity in THP-1 cell lysates)) EUB0000639a STK10; type: subcellular; settings: lysate, at 5 µM
[11] = molecular target: Serine/threonine-protein kinase VRK2 (Homo sapiens) (UniProt Q86Y07); assay: Selectivity interaction (KinomeScan (DiscoverX)) EUB0000655a VRK2; settings: at 10 µM
[12] = molecular target: Cyclin-dependent kinase 5 (Homo sapiens, UniProt Q00535); assay: Selectivity interaction (KinomeScan (DiscoverX)) EUB0000092b CDK5; settings: at 10 µM
[13] = molecular target: T3, Protein kinase C iota type (Homo sapiens) (UniProt P41743); assay: Selectivity interaction (Ambit KINOMEscan and KiNATiv profiling in Jurkat cells) EUB0000090b PRKCI; type: cell-based; settings: at 1 µM
T3 sequence (whole entry): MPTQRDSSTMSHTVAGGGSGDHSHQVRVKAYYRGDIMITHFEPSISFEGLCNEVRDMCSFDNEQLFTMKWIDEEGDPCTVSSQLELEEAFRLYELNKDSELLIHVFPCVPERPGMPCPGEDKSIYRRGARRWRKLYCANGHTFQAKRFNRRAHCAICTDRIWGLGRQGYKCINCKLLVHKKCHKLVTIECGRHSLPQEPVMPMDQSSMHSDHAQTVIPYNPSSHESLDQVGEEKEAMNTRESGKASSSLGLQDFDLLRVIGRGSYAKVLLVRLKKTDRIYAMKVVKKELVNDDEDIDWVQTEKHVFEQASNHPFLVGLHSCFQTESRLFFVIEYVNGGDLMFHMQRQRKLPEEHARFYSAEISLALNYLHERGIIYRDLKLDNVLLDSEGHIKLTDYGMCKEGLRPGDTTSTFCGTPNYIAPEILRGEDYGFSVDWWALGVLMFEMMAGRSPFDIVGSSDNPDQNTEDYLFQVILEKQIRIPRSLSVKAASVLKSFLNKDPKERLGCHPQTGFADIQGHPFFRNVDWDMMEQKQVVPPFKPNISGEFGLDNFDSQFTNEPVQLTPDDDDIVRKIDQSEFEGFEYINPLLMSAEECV

Chain of Leucine-rich repeat serine/threonine-protein kinase 2 (Q5S007 whole entry): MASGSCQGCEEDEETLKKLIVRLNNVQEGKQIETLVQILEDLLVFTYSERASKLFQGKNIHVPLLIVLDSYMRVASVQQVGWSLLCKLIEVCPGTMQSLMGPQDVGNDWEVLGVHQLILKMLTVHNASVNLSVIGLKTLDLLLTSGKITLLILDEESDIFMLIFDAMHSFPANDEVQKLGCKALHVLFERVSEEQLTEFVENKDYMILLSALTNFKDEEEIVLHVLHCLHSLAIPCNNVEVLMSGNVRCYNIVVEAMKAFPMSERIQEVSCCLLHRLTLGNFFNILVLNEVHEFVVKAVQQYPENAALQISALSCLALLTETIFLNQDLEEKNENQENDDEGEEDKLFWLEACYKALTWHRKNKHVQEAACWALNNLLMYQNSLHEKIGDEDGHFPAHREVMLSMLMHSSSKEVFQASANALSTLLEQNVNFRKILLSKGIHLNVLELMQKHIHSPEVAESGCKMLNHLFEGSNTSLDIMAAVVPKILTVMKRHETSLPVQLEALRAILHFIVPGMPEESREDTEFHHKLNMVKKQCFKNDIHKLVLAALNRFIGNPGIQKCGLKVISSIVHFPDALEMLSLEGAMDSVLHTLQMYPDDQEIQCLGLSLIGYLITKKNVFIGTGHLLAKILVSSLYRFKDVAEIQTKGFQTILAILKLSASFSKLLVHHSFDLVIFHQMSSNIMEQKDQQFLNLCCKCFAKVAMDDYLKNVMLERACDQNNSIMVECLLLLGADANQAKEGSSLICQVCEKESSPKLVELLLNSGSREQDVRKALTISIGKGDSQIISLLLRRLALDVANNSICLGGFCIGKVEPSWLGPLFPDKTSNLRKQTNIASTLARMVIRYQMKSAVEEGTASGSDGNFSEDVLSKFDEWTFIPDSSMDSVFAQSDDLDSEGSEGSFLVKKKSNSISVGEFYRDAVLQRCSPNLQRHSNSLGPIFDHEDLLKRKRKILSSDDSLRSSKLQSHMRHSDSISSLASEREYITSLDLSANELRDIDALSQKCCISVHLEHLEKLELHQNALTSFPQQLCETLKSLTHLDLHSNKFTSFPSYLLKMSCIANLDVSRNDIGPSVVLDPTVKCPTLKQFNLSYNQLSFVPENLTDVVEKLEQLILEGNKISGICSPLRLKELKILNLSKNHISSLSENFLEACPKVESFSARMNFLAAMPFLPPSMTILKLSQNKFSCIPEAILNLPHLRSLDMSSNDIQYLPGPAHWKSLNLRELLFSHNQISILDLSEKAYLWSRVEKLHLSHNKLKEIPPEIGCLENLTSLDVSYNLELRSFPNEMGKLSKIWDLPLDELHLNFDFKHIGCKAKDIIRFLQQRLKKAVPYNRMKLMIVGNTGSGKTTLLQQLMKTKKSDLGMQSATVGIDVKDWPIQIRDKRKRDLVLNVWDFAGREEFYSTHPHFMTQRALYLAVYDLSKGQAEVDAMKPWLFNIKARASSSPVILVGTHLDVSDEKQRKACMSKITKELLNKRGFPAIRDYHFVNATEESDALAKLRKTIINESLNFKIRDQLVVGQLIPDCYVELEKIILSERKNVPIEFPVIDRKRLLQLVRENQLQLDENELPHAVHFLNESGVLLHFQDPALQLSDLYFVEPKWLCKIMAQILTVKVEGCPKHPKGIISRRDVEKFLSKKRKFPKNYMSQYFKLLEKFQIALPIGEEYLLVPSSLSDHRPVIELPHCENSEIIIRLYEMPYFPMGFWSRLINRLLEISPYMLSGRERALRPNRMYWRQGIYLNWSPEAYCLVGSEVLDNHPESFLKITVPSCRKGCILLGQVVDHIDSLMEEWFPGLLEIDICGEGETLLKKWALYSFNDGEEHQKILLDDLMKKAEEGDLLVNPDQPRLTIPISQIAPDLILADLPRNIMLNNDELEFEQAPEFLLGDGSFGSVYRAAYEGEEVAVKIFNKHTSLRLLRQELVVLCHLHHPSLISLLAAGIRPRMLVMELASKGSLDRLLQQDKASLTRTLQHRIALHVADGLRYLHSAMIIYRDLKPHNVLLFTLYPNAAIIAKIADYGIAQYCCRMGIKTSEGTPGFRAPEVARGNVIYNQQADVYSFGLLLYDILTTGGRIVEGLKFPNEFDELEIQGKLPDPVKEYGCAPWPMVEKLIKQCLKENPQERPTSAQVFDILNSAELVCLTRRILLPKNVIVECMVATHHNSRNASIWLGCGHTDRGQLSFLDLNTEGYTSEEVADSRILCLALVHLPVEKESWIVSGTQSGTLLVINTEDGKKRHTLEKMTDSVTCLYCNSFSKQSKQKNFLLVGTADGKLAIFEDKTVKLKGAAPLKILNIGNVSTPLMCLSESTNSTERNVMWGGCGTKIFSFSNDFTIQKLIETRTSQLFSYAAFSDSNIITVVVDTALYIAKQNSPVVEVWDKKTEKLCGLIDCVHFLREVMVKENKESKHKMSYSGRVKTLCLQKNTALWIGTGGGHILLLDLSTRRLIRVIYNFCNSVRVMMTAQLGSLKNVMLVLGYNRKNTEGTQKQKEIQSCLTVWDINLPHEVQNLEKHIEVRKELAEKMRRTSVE
Chain of Serine/threonine-protein kinase SIK1 (Homo sapiens) (P57059 whole entry): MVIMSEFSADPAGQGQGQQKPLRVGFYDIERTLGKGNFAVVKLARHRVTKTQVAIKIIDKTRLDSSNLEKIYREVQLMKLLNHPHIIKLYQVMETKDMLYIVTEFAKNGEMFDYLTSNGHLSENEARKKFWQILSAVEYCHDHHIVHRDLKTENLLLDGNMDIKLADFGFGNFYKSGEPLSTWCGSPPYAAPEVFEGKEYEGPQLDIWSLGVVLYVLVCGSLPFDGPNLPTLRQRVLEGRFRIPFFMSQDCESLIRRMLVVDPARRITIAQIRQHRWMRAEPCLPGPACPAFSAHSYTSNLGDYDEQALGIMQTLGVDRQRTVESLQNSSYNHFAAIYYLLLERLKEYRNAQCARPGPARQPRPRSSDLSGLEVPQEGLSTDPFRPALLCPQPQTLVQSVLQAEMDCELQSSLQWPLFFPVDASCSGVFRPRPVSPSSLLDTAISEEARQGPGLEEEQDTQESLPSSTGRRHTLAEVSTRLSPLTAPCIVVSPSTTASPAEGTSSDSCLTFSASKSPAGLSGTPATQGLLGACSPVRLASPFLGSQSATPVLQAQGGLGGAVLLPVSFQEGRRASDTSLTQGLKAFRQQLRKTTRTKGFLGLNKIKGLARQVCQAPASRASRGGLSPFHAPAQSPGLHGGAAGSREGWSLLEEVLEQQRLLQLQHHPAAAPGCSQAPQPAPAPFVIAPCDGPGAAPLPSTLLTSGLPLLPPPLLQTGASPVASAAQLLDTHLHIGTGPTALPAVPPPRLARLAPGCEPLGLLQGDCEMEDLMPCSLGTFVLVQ
Chain of Cyclin-dependent kinase 5 (Q00535 whole entry, looked up): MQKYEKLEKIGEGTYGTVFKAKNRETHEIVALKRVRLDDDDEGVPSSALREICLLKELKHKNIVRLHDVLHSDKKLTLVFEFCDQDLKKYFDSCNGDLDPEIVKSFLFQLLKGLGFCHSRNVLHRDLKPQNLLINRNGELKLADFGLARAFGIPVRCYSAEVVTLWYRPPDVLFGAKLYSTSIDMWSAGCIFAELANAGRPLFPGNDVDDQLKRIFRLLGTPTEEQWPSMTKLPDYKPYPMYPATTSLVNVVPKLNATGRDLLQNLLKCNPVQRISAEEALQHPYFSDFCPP
Chain of MAP kinase-activated protein kinase 3 (Homo sapiens) (Q16644 whole entry, looked up): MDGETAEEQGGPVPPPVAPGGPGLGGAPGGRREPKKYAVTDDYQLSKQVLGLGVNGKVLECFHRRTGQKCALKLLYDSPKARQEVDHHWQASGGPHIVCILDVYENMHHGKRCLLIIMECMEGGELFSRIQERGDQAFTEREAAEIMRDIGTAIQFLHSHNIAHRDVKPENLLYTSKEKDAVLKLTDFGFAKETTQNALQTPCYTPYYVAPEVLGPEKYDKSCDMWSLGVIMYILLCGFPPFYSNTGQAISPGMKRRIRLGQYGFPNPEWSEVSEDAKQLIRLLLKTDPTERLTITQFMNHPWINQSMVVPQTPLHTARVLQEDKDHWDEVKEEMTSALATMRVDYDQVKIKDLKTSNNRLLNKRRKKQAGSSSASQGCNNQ
Chain of Serine/threonine-protein kinase 10 (Homo sapiens) (O94804 whole entry, looked up): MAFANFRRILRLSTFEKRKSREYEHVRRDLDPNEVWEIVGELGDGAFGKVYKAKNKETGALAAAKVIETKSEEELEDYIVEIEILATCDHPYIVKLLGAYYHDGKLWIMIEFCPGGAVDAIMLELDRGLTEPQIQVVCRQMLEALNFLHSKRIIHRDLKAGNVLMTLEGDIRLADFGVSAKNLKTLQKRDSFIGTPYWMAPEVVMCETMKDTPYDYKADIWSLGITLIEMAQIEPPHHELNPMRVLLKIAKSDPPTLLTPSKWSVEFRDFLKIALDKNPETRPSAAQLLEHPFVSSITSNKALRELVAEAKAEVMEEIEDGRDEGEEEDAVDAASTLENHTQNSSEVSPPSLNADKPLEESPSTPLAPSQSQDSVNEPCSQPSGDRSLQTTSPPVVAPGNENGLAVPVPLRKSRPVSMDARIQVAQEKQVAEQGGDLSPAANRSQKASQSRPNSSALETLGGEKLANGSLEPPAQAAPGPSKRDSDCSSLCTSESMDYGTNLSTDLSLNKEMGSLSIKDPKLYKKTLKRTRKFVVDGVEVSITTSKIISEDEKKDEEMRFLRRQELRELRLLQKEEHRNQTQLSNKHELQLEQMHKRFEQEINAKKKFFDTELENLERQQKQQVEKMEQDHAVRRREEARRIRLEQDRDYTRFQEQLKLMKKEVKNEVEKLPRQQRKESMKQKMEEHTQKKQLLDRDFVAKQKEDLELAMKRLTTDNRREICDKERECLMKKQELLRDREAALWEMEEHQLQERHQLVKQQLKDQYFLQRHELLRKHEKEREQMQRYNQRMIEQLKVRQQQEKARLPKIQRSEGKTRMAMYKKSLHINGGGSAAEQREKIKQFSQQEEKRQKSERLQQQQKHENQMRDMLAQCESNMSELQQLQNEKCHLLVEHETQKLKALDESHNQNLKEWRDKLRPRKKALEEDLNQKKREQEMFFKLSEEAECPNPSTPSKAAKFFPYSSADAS

Question: How did the % binding [1] turn out when `COc1cc(N(C)c2ccnc3ccc(C(F)(F)F)cc23)cc(OC)c1OC` was run?
Answer: Its % binding is 100%.

Question: Which % of control [2] does the source give for `COCC(=O)NC/C=C/c1ccc2ncnc(Nc3ccc(Oc4ccc(C)nc4)c(C)c3)c2c1` [CP-724714] here?
Answer: The % of control was 100%.

Question: `C=CC(=O)Nc1cc(-n2c(=O)ccc3cnc4ccc(-c5ccc(NS(C)(=O)=O)cc5)cc4c32)ccc1C` was tested. Which % of control ([3]; at 1 µM) did it give?
Answer: Its % of control is 100%.

Question: What about the % of control ([3]; at 10 µM) of the same compound?
Answer: The % of control was 69%.

Question: How did the % of control [4] turn out when `Nc1cnc(N2CCc3cc(S(=O)(=O)Nc4c(F)cc(Cl)cc4F)cc(N4CCCC4=O)c32)nc1` [TP-020n] was run?
Answer: Its % of control is 75%.

Question: With `Cn1cc(-n2cnc3c(NCc4nc5cc(Cl)c(Cl)cc5[nH]4)nc(N4CCOCC4)nc32)cn1` as the compound, how does the % of control [5] read?
Answer: The % of control was 2.63%.

Question: For `O=C(NOC[C@H](O)CO)c1ccc(F)c(F)c1Nc1ccc(I)cc1F`, which % of control [6] is on record?
Answer: Its % of control is 95%.

Question: How did the % of control [7] turn out when `COc1cc(Nc2nc(C)cc(-c3cnn4nc(OC)ccc34)n2)cc(C(F)(F)F)c1` was run?
Answer: Its % of control is 58%.

Question: How did the IC50 [8] turn out when `CCC(=O)N1CC[C@H](Nc2ncnc3c2CN(c2cnc(OC)c(C(F)(F)F)c2)CC3)C1` [LENIOLISIB] was run?
Answer: Its IC50 is greater than 30 µM.

Question: With `CC[C@@H]1[C@H](F)C(=O)N[C@@H]1COc1nccc2cc(C(N)=O)c(OC)cc12` [ZIMLOVISERTIB] as the compound, how does the % of inhibition ([9]; at 0.01 µM) read?
Answer: Its % of inhibition is 18.4%.

Question: And the % of inhibition ([9]; at 0.04 µM)?
Answer: The % of inhibition was 1.9%.

Question: What about the % of inhibition ([9]; at 0.2 µM) of the same compound?
Answer: Its % of inhibition is 22.9%.

Question: And the % of inhibition ([9]; at 1 µM)?
Answer: Its % of inhibition is 70.9%.

Question: What about the % of inhibition ([9]; at 5 µM) of the same compound?
Answer: Its % of inhibition is 78%.

Question: And the % of inhibition [10]?
Answer: The % of inhibition was -21.8%.

Question: Which % of control [11] does the source give for `CN(C)CCOc1ccc(-c2nc(-c3ccncc3)c(-c3ccc4c(c3)CC/C4=N\O)[nH]2)cc1` here?
Answer: Its % of control is 94%.

Question: With `CCC(=O)N1CCN(c2ccc(-n3c(=O)ccc4cnc5ccc(-c6cnc7ccccc7c6)cc5c43)cc2C(F)(F)F)CC1` as the compound, how does the % of control [12] read?
Answer: The % of control was 100%.

Question: For `CN(C)C/C=C/C(=O)Nc1ccc(C(=O)N2CCCC(Nc3ncc(Cl)c(-c4c[nH]c5ccccc45)n3)C2)cc1` (stereo not drawn), which % of control [13] is on record?
Answer: Its % of control is 98%.

Source: ChEMBL document CHEMBL5465560, “Selectivity Literature for EUbOPEN Chemogenomic Library” (2024)
